Measured values as given in paper PMC8617031, “Development of a BCL-xL and BCL-2 dual degrader with improved anti-leukemic activity,” (Nature Communications, 2021).
Where “and” joins values, the source holds several entries; their conditions need not be identical. Equal entries are not always repeated. Where two headings read alike, the source gives them in different places.

How the values were obtained:
[1] = test system: 293T cells; assay: Viability (MTS) of 293T cells; format: cell-based, human; conditions: for 293T cell viability, MTS absorbance 490 as percent of control, mean of three wells, left block of Plate 29: mean of 3 wells, Plate 29 normalised with blank 0.332667 and control 0.923167 of Plate 30; for 293T cell viability, MTS absorbance 490 as percent of untreated control, single replicate well: normalised to own plate
Procedure: (§1) Suspension cells were treated 30 min after seeding, whereas adherent cells were allowed to adhere overnight and were then treated. Compound treatments were prepared in complete cell culture medium and 100 µl of 2× treatment-containing medium were added to each well. Complete cell culture medium without treatment was added in control wells, and wells containing medium without cells served as background. The outer wells of the 96-well plate were not used for treatment and were filled with 250 µl of PBS to reduce evaporation of medium from inner wells. Each compound and/or combination was tested at nine different concentrations with three replicates. The cell viability was measured after 72 h by tetrazolium-based MTS assay. MTS reagent (2 mg ml^–1 stock; cat. no. G1111, Promega) was freshly supplemented with phenazine methosulfate (PMS, 0.92 mg ml^–1 stock, cat. no. P9625, Sigma-Aldrich) in 20:1 ratio, and 20 µl of this mixture was added to each control and treatment well. The cells were incubated for 4 h at 37 °C and 5% CO2, and then the absorbance was recorded at 490 nm using Biotek’s Synergy Neo2 multimode plate reader (Biotek). The average absorbance value of background wells was subtracted from absorbance value of each control and treatment well, and percent cell viability ((At/A0) × 100)) was determined in each treatment well, where At is the absorbance value of the treatment well and A0 is the average absorbance value of control wells after background subtraction. The data were expressed as average percentage cell viability and fitted in non-linear regression curves using GraphPad Prism 7 (GraphPad Software, La Jolla, CA, USA).

[2] = test system: Hela cells; assay: Viability (MTS) of Hela cells; format: cell-based, human; conditions: in % (unit assumed)
Procedure: as §1

[3] = molecular target: T1, His-tagged BCL-2 (Homo sapiens, UniProt P10415); assay: AlphaScreen competitive binary binding, BCL-2 (biotin-BIM peptide); conditions: for Alpha signal normalised to Maximum/Minimum (inhibition): in % (unit assumed)
T1 construct: purchased Sigma-Aldrich SRP0186
T1 sequence (P10415 whole entry): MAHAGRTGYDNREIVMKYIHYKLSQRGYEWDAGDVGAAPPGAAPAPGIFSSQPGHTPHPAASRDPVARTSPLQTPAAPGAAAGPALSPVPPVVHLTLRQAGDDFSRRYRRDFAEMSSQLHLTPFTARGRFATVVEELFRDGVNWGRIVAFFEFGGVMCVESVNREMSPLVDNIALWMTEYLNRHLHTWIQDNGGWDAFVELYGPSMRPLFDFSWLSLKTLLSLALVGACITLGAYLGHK
Procedure: The reagents were diluted in a buffer containing 250 mM HEPES pH 7.5, 1 M NaCl, 1% BSA, and 0.05% Tween-80. His-tagged BCL-xL (0.5 nM, Cat. No. SRP0187, Sigma-Aldrich) or BCL-2 (1 nM, Cat. No. SRP0186, Sigma-Aldrich) were incubated with serial diluted 753a or 753b and 2 nM biotin-tagged BAD (biotin-[…] amino-terminal, AnaSpec, for BCL-xL) or 10 nM BIM peptides (biotin-[…] N-terminal, AnaSpec, for BCL-2) to a final volume of 40 µl in a 96-well PCR plate. […] After incubation for 2 h, 5 µl 6× His-acceptor beads (Cat. No. AL128M, PerkinElmer) were added to each well at 20 µg/ml final concentration and incubated for 1 h. Then 5 µl streptavidin-donor beads were added (Cat. No. 6760002, PerkinElmer) to each well at 20 µg/ml final concentration and incubated for 45 min. At the end of the incubation period, 17 µl of each sample was transferred in adjacent wells of 384-well proxy plate (Cat. No. 6008280, PerkinElmer). The plate was scanned using the Alpha program on Biotek’s Synergy Neo2 multimode plate reader. The inhibition constant (Ki) was calculated using the non-linear regression, one site, competitive binding, Fit Ki function on GraphPad Prism 9 software, based on experimentally determined dissociation constant (Kd) for each protein–peptide pair.

Alpha signal normalised to Maximum/Minimum (inhibition) ([3]; BCL-2 Rep-1, 0.000305176 uM, 0.000305176 µM): 11.9513
inhibition at 0.000305176 µM ([3]; BCL-2 Rep-1, 0.000305176 uM, read-out: Alpha signal normalised to Maximum/Minimum (inhibition)): 15.4%
Alpha signal normalised to Maximum/Minimum (inhibition) ([3]; BCL-2 Rep-1, 0.00488281 uM, 0.00488281 µM): 42.8592
inhibition at 0.00488281 µM ([3]; BCL-2 Rep-1, 0.00488281 uM, read-out: Alpha signal normalised to Maximum/Minimum (inhibition)): 43%
Alpha signal normalised to Maximum/Minimum (inhibition) ([3]; BCL-2 Rep-1, 0.0195312 uM, 0.0195312 µM): 72.1054
inhibition at 0.0195312 µM ([3]; BCL-2 Rep-1, 0.0195312 uM, read-out: Alpha signal normalised to Maximum/Minimum (inhibition)): 69.3%
Alpha signal normalised to Maximum/Minimum (inhibition) ([3]; BCL-2 Rep-1, 0.078125 uM, 0.078125 µM): 96.9363
inhibition at 0.078125 µM ([3]; BCL-2 Rep-1, 0.078125 uM, read-out: Alpha signal normalised to Maximum/Minimum (inhibition)): 96.6%
Alpha signal normalised to Maximum/Minimum (inhibition) ([3]; BCL-2 Rep-1, 0.3125 uM, 0.3125 µM): 99.419
inhibition at 0.3125 µM ([3]; BCL-2 Rep-1, 0.3125 uM, read-out: Alpha signal normalised to Maximum/Minimum (inhibition)): 100%
Alpha signal normalised to Maximum/Minimum (inhibition) ([3]; BCL-2 Rep-1, 1.25 uM, 1.25 µM): 99.6178
inhibition at 1.25 µM ([3]; BCL-2 Rep-1, 1.25 uM, read-out: Alpha signal normalised to Maximum/Minimum (inhibition)): 99.6%
Alpha signal normalised to Maximum/Minimum (inhibition) ([3]; BCL-2 Rep-1, 5 uM, 5 µM): 99.391
inhibition at 5 µM ([3]; BCL-2 Rep-1, 5 uM, read-out: Alpha signal normalised to Maximum/Minimum (inhibition)): 100%
Alpha signal (raw counts) ([3]; BCL-2 Rep-2, 0.00488281 uM): 457290 and 444842
Alpha signal normalised to Maximum/Minimum (inhibition) ([3]; BCL-2 Rep-2, 0.0195312 uM, 0.0195312 µM): 73.927
inhibition at 0.0195312 µM ([3]; BCL-2 Rep-2, 0.0195312 uM, read-out: Alpha signal normalised to Maximum/Minimum (inhibition)): 72.6%
Alpha signal normalised to Maximum/Minimum (inhibition) ([3]; BCL-2 Rep-2, 0.078125 uM, 0.078125 µM): 98.4863
inhibition at 0.078125 µM ([3]; BCL-2 Rep-2, 0.078125 uM, read-out: Alpha signal normalised to Maximum/Minimum (inhibition)): 98.1%
Alpha signal normalised to Maximum/Minimum (inhibition) ([3]; BCL-2 Rep-2, 0.3125 uM, 0.3125 µM): 98.9063
inhibition at 0.3125 µM ([3]; BCL-2 Rep-2, 0.3125 uM, read-out: Alpha signal normalised to Maximum/Minimum (inhibition)): 98.5%
Alpha signal normalised to Maximum/Minimum (inhibition) ([3]; BCL-2 Rep-2, 1.25 uM, 1.25 µM): 100.524
inhibition at 1.25 µM ([3]; BCL-2 Rep-2, 1.25 uM, read-out: Alpha signal normalised to Maximum/Minimum (inhibition)): 101%
Alpha signal normalised to Maximum/Minimum (inhibition) ([3]; BCL-2 Rep-2, 5 uM, 5 µM): 100.141
inhibition at 5 µM ([3]; BCL-2 Rep-2, 5 uM, read-out: Alpha signal normalised to Maximum/Minimum (inhibition)): 99.9%
Alpha signal (raw counts) ([3]; BCL-2 Rep-2, plate row B, 5 uM): 15606 and 13933
Alpha signal (raw counts) ([3]; BCL-2 Rep-2, plate row C, 1.25 uM): 9913 and 10759
Alpha signal (raw counts) ([3]; BCL-2 Rep-2, plate row D, 0.3125 uM): 27814 and 24179
Alpha signal (raw counts) ([3]; BCL-2 Rep-2, plate row E, 0.078125 uM): 30701 and 27663
Alpha signal (raw counts) ([3]; BCL-2 Rep-2, plate row F, 0.0195312 uM): 242422 and 231401
Alpha signal (raw counts) ([3]; BCL-2 Rep-2, plate row H, 0.0012207 uM): 765240 and 763074
Alpha signal (raw counts) ([3]; BCL-2 Rep-2, plate row I, 0.000305176 uM): 762866 and 759346
Alpha signal (raw counts) ([3]; BCL-2 Rep-2, plate row J, 7.62939e-5 uM): 726537 and 792609
Alpha signal (raw counts) ([3]; BCL-2 Rep-2, plate row K, 1.90735e-5 uM): 756626 and 814053
Structure (SMILES): Cc1ncsc1-c1ccc([C@H](C)NC(=O)[C@@H]2C[C@@H](O)CN2C(=O)[C@@H](NC(=O)CCCCCC(=O)N2CCN(CC[C@H](CSc3ccccc3)Nc3ccc(S(=O)(=O)NC(=O)c4ccc(N5CCN(CC6=C(c7ccc(Cl)cc7)CCC(C)(C)C6)CC5)cc4)cc3S(=O)(=O)C(F)(F)F)CC2)C(C)(C)C)cc1 [DT2216]
293T cell viability, MTS absorbance 490 as percent of control, mean of three wells, left block of Plate 29 ([1]; 0.00137174 uM): 100.343
293T cell viability, MTS absorbance 490 as percent of control, single replicate well, left block of Plate 29 ([1]; 0.00137174 uM, Plate 29 normalised with blank 0.332667 and control 0.923167 of Plate 30, 0.00137174 µM): 99.4764 and 95.6851
293T cell viability, MTS absorbance 490 as percent of untreated control, single replicate well ([1]; 0.00137174 uM): 104.404 and 98.1429 and 94.4287
293T cell viability, MTS absorbance 490 as percent of control, mean of three wells, left block of Plate 29 ([1]; 0.00411523 uM): 98.6099
293T cell viability, MTS absorbance 490 as percent of control, single replicate well, left block of Plate 29 ([1]; 0.00411523 uM, Plate 29 normalised with blank 0.332667 and control 0.923167 of Plate 30, 0.00411523 µM): 96.0101 and 96.1184
293T cell viability, MTS absorbance 490 as percent of untreated control, single replicate well ([1]; 0.00411523 uM): 102.282 and 94.7471 and 94.8532
293T cell viability, MTS absorbance 490 as percent of control, mean of three wells, left block of Plate 29 ([1]; 0.037037 uM): 101.101
293T cell viability, MTS absorbance 490 as percent of control, single replicate well, left block of Plate 29 ([1]; 0.037037 uM, Plate 29 normalised with blank 0.332667 and control 0.923167 of Plate 30, 0.037037 µM): 93.0854 and 104.134
293T cell viability, MTS absorbance 490 as percent of untreated control, single replicate well ([1]; 0.037037 uM): 91.8819 and 102.706
293T cell viability, MTS absorbance 490 as percent of control, mean of three wells, left block of Plate 29 ([1]; 0.111111 uM): 100.235
293T cell viability, MTS absorbance 490 as percent of control, single replicate well, left block of Plate 29 ([1]; 0.111111 uM, Plate 29 normalised with blank 0.332667 and control 0.923167 of Plate 30, 0.111111 µM): 95.1435 and 95.2519
293T cell viability, MTS absorbance 490 as percent of untreated control, single replicate well ([1]; 0.111111 uM): 93.8981 and 94.0042
293T cell viability, MTS absorbance 490 as percent of control, mean of three wells, left block of Plate 29 ([1]; 0.333333 uM): 99.5125
293T cell viability, MTS absorbance 490 as percent of control, single replicate well, left block of Plate 29 ([1]; 0.333333 uM, Plate 29 normalised with blank 0.332667 and control 0.923167 of Plate 30, 0.333333 µM): 112.042 and 98.7182 and 87.7776
293T cell viability, MTS absorbance 490 as percent of untreated control, single replicate well ([1]; 0.333333 uM): 110.453 and 97.4001 and 86.682
293T cell viability, MTS absorbance 490 as percent of control, mean of three wells, left block of Plate 29 ([1]; 1 uM): 99.007
293T cell viability, MTS absorbance 490 as percent of control, single replicate well, left block of Plate 29 ([1]; 1 uM, Plate 29 normalised with blank 0.332667 and control 0.923167 of Plate 30, 1 µM): 110.742 and 102.834 and 83.4447
293T cell viability, MTS absorbance 490 as percent of untreated control, single replicate well ([1]; 1 uM): 109.179 and 101.433 and 82.4372
293T cell viability, MTS absorbance 490 as percent of control, mean of three wells, left block of Plate 29 ([1]; 3 uM): 87.4526
293T cell viability, MTS absorbance 490 as percent of control, single replicate well, left block of Plate 29 ([1]; 3 uM, Plate 29 normalised with blank 0.332667 and control 0.923167 of Plate 30, 3 µM): 93.7353 and 78.0285
293T cell viability, MTS absorbance 490 as percent of untreated control, single replicate well ([1]; 3 uM): 92.5186 and 77.1312
cell viability normalised to control wells (single replicate) ([2]; MTS absorbance 490, Conc 0.00137174 uM): 91.7776
cell viability normalised to control wells (single replicate) ([2]; MTS absorbance 490, Conc 0.00411523 uM): 92.3987 and 92.7536
cell viability normalised to control wells (single replicate) ([2]; MTS absorbance 490, Conc 0.037037 uM): 98.4324 and 86.0988
cell viability normalised to control wells (single replicate) ([2]; MTS absorbance 490, Conc 0.111111 uM): 97.9 and 88.8495
cell viability normalised to control wells (single replicate) ([2]; MTS absorbance 490, Conc 0.333333 uM): 93.1973 and 104.022
cell viability normalised to control wells (single replicate) ([2]; MTS absorbance 490, Conc 1 uM): 83.5256 and 94.1733
cell viability normalised to control wells (single replicate) ([2]; MTS absorbance 490, Conc 3 uM): 80.7749
